Two molecules from the NIST ThermoML archive (doi:10.1021/acs.jced.5b00098) can be followed below.

± gives the expanded uncertainty stated by the source.

For this series the following is noted: Crystal; visual observation.

For `O=c1cc(-c2ccccc2)c2cc(O)c(O)cc2o1` [6,7-dihydroxy-4-phenylcoumarin], the Normal melting temperature was 269.50 ± 0.5 °C.

For `COc1cc2oc(=O)cc(-c3ccccc3)c2cc1O` [6-hydroxy-7-methoxy-4-phenylcoumarin], the Normal melting temperature stood at 211.50 ± 0.5 °C.
